Data taken from ChEMBL document CHEMBL1138016, “Azaadamantane benzamide 5-HT4 agonists: gastrointestinal prokinetic SC-54750” (Bioorg Med Chem Lett, 2004).

Tests used:
[1] = target: 5-hydroxytryptamine receptor 4 (Rattus norvegicus) (UniProt Q62758); test: Effective concentration required towards 5-hydroxytryptamine 4 receptor in rat tunica muscularis mucosae
[2] = Concentration required for inhibition of Dopamine receptor D2 using [3H]spiperone as the radioligand
[3] = Concentration required for inhibition of 5-hydroxytryptamine 1 receptor using [3H]-5-HT as the radioligand
[4] = target: 5-hydroxytryptamine receptor 4 (Cavia porcellus); test: Binding affinity for 5-hydroxytryptamine 4 receptor in guinea pig was determined by guinea pig striatum binding assay
[5] = Concentration required for inhibition of Dopamine receptor D1 using [3H]SCH-23,390 as the radioligand
[6] = target: T1, Serotonin 3 (5-HT3) receptor (Rattus norvegicus, UniProt P35563+Q9JJ16); test: Binding affinity towards 5-hydroxytryptamine 3 receptor using [3H]GR-65630 as the radioligand in male rat cortical tissue; assay type: protein-complex assay
T1 sequence (P35563 whole entry): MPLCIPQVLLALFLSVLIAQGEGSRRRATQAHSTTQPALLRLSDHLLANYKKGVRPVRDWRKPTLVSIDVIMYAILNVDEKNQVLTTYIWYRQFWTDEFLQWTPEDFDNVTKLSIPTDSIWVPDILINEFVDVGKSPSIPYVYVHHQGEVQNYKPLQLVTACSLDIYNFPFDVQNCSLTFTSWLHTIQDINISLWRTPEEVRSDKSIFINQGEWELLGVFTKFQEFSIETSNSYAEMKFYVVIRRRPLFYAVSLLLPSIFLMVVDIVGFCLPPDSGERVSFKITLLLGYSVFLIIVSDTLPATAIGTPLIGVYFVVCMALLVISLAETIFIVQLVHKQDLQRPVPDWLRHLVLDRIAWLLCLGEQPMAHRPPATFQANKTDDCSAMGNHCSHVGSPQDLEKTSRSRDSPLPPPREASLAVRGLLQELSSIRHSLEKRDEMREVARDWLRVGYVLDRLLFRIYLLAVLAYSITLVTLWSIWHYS
T1 sequence (Q9JJ16 whole entry): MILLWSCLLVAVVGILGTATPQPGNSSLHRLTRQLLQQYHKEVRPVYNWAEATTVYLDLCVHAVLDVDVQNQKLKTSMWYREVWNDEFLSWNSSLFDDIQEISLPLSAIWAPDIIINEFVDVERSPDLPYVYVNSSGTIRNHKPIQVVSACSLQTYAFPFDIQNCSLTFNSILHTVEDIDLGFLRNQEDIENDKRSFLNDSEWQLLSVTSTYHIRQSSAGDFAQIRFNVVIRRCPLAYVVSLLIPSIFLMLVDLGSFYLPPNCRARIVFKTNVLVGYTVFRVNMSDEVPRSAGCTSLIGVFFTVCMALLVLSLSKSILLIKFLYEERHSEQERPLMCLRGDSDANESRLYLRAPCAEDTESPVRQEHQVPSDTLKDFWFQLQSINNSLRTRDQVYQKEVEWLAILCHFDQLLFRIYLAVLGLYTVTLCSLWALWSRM

[7] = tested on: Canis familiaris; test: Tested for inhibition of cisplatin-induced emesis in dog after i.g. administration; conditions: Canis lupus familiaris, po; read-out: ID50 (the source's name)
[8] = tested on: Oryctolagus cuniculus; test: Effective dose required for restoring normal motility after i.v. administration; assay type: functional, Canis lupus familiaris; conditions: iv
[9] = tested on: Oryctolagus cuniculus; test: Effective concentration required for restoring normal motility after i.v. administration; assay type: functional, organism-based, Canis lupus familiaris

Sequence of 5-hydroxytryptamine receptor 4 (Rattus norvegicus) (Q62758 whole entry, looked up): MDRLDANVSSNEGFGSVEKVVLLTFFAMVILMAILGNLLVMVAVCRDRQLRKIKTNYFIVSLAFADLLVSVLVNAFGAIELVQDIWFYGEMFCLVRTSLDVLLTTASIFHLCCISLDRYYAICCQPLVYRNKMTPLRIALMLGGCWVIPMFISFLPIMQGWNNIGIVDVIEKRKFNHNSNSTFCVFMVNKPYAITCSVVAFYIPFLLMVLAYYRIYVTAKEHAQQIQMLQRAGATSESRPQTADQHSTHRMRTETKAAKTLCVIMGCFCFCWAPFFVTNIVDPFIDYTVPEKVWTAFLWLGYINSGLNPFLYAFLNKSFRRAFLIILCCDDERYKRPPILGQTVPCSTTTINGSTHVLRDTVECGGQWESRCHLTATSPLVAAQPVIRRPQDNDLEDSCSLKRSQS

| EC50 [1] | IC50 [2] | IC50 [3] | Ki [4] | IC50 [5] | Ki [6] | SMILES | ED50 [7] | ED50 [8] | EC50 [9] |
| --- | --- | --- | --- | --- | --- | --- | --- | --- | --- |
| 538 nM | > 10 µM | > 10 µM | > 500 nM | > 10 µM | 336 nM | COc1cc(N)c(Cl)cc1C(=O)NC1C2CC3CC1CN(C3)C2 (stereo in doubt; 9a) |  |  |  |
| 262 nM |  |  | 57 nM |  | 9 nM | COc1cc(N)c(Cl)cc1C(=O)NC1C2CC3CC1CN(C3)C2 (stereo in doubt; 9b) |  |  |  |
|  | > 10 µM | > 10 µM |  | > 10 µM | 25.4 nM | COc1cc(N)c(Cl)cc1C(=O)NCC1C2CC3CC1CN(C3)C2 (stereo in doubt; 9c) | 0.3 mg/kg | 0.62 mg/kg | 0.03 mg/kg |
